# Reference: PubChem BioAssay AID1963422 (Molecular Pharmacology Branch, DTP, NCI, 2024)
# Test system: 463943-066-T-J2-PDC complex spheroid growth
# Experiment: Anticancer human tumor 463943-066-T-J2-PDC patient-derived colon adenocarcinoma cell line growth inhibition [Asc]
# Details: for IC50: curve of first compound; for viability, T/C: stronger effect = lower value
# Outline: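 Complex spheroids combining tumor cells with HUVEC endothelial cells and human MSCs, at 37 degrees C, 5% CO2; agents tested alone or combined, half-log dilutions from at or near clinical Cmax, or 10 microM if Cmax unknown.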
# 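Further: compound exposure lasted 7 days.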
# 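Wherever viability, T/C is given: 100% = DMSO vehicle control wells.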
smiles,measurement,setting,value
Cc1nc(N2CCC3(CC2)COC(C)C3N)c(CO)nc1Sc1ccnc(N)c1Cl (centres undefined) + CNC(C)C(=O)NC1CN(S(=O)(=O)c2cccc(S(=O)(=O)N3CCC4CCC(C(=O)NC(c5ccccc5)c5ccccc5)N4C(=O)C(NC(=O)C(C)NC)C3)c2)CCC2CCC(C(=O)NC(c3ccccc3)c3ccccc3)N2C1=O,IC50,second compound 0.00316 µM,> 3 µM
same,IC50,second compound 0.01 µM,> 3 µM
same,IC50,second compound 0.0316 µM,> 3 µM
same,IC50,second compound 0.1 µM,> 3 µM
same,IC50,second compound 0.316 µM,> 3 µM
same,IC50,second compound 1 µM,> 3 µM
same,"viability, T/C","second compound 0.00316 µM, first compound 0.00949 µM",106%
same,"viability, T/C","second compound 0.00316 µM, first compound 0.03 µM",84.2%
same,"viability, T/C","second compound 0.00316 µM, first compound 0.0949 µM",85.5%
same,"viability, T/C","second compound 0.00316 µM, first compound 0.3 µM",86.6%
same,"viability, T/C","second compound 0.00316 µM, first compound 0.949 µM",81%
same,"viability, T/C","second compound 0.00316 µM, first compound 3 µM",70.3%
same,"viability, T/C","second compound 0.01 µM, first compound 0.00949 µM",96.2%
same,"viability, T/C","second compound 0.01 µM, first compound 0.03 µM",95.6%
same,"viability, T/C","second compound 0.01 µM, first compound 0.0949 µM",83.1%
same,"viability, T/C","second compound 0.01 µM, first compound 0.3 µM",85.5%
same,"viability, T/C","second compound 0.01 µM, first compound 0.949 µM",77.1%
same,"viability, T/C","second compound 0.01 µM, first compound 3 µM",71.8%
same,"viability, T/C","second compound 0.0316 µM, first compound 0.00949 µM",95.4%
same,"viability, T/C","second compound 0.0316 µM, first compound 0.03 µM",94.7%
same,"viability, T/C","second compound 0.0316 µM, first compound 0.0949 µM",81.3%
same,"viability, T/C","second compound 0.0316 µM, first compound 0.3 µM",78.8%
same,"viability, T/C","second compound 0.0316 µM, first compound 0.949 µM",77.6%
same,"viability, T/C","second compound 0.0316 µM, first compound 3 µM",69.1%
same,"viability, T/C","second compound 0.1 µM, first compound 0.00949 µM",96.8%
same,"viability, T/C","second compound 0.1 µM, first compound 0.03 µM",87%
same,"viability, T/C","second compound 0.1 µM, first compound 0.0949 µM",89.1%
same,"viability, T/C","second compound 0.1 µM, first compound 0.3 µM",88.1%
same,"viability, T/C","second compound 0.1 µM, first compound 0.949 µM",73.2%
same,"viability, T/C","second compound 0.1 µM, first compound 3 µM",66.3%
same,"viability, T/C","second compound 0.316 µM, first compound 0.00949 µM",92.3%
same,"viability, T/C","second compound 0.316 µM, first compound 0.03 µM",92.5%
same,"viability, T/C","second compound 0.316 µM, first compound 0.0949 µM",88.8%
same,"viability, T/C","second compound 0.316 µM, first compound 0.3 µM",83%
same,"viability, T/C","second compound 0.316 µM, first compound 0.949 µM",73.6%
same,"viability, T/C","second compound 0.316 µM, first compound 3 µM",66.5%
same,"viability, T/C","second compound 1 µM, first compound 0.00949 µM",84.1%
same,"viability, T/C","second compound 1 µM, first compound 0.03 µM",82.2%
same,"viability, T/C","second compound 1 µM, first compound 0.0949 µM",82%
same,"viability, T/C","second compound 1 µM, first compound 0.3 µM",73.5%
same,"viability, T/C","second compound 1 µM, first compound 0.949 µM",69.3%
same,"viability, T/C","second compound 1 µM, first compound 3 µM",64%
O=C(c1cc(Cc2n[nH]c(=O)c3ccccc23)ccc1F)N1CCN(C(=O)C2CC2)CC1 + Cc1c(S(C)(=O)=O)c(-c2cc(F)cc(N3CCN(c4ccc(NS(=O)(=O)c5ccc(NC(CCN6CCC(C(=O)OCCCP(=O)(O)O)CC6)CSc6ccccc6)c(S(=O)(=O)C(F)(F)F)c5)cc4)CC3)c2)c(-c2ccc(Cl)cc2)n1C(C)C,IC50,second compound 0.0316 µM,> 10 µM
same,IC50,second compound 0.1 µM,> 10 µM
same,IC50,second compound 0.316 µM,> 10 µM
same,IC50,second compound 1 µM,> 10 µM
same,IC50,second compound 3.16 µM,> 10 µM
same,IC50,second compound 10 µM,1.16 µM
same,"viability, T/C","second compound 0.0316 µM, first compound 0.0316 µM",95.1%
same,"viability, T/C","second compound 0.0316 µM, first compound 0.1 µM",90%
same,"viability, T/C","second compound 0.0316 µM, first compound 0.316 µM",93%
same,"viability, T/C","second compound 0.0316 µM, first compound 1 µM",97.3%
same,"viability, T/C","second compound 0.0316 µM, first compound 3.16 µM",93.3%
same,"viability, T/C","second compound 0.0316 µM, first compound 10 µM",86.9%
same,"viability, T/C","second compound 0.1 µM, first compound 0.0316 µM",98.3%
same,"viability, T/C","second compound 0.1 µM, first compound 0.1 µM",86.5%
same,"viability, T/C","second compound 0.1 µM, first compound 0.316 µM",94.1%
same,"viability, T/C","second compound 0.1 µM, first compound 1 µM",91.5%
same,"viability, T/C","second compound 0.1 µM, first compound 3.16 µM",94.6%
same,"viability, T/C","second compound 0.1 µM, first compound 10 µM",81.7%
same,"viability, T/C","second compound 0.316 µM, first compound 0.0316 µM",91.5%
same,"viability, T/C","second compound 0.316 µM, first compound 0.1 µM",90.3%
same,"viability, T/C","second compound 0.316 µM, first compound 0.316 µM",87.2%
same,"viability, T/C","second compound 0.316 µM, first compound 1 µM",85.8%
same,"viability, T/C","second compound 0.316 µM, first compound 3.16 µM",88.7%
same,"viability, T/C","second compound 0.316 µM, first compound 10 µM",77.1%
same,"viability, T/C","second compound 1 µM, first compound 0.0316 µM",79.4%
same,"viability, T/C","second compound 1 µM, first compound 0.1 µM",76.2%
same,"viability, T/C","second compound 1 µM, first compound 0.316 µM",81.4%
same,"viability, T/C","second compound 1 µM, first compound 1 µM",79.3%
same,"viability, T/C","second compound 1 µM, first compound 3.16 µM",73.3%
same,"viability, T/C","second compound 1 µM, first compound 10 µM",74.8%
same,"viability, T/C","second compound 3.16 µM, first compound 0.0316 µM",65.4%
same,"viability, T/C","second compound 3.16 µM, first compound 0.1 µM",59.8%
same,"viability, T/C","second compound 3.16 µM, first compound 0.316 µM",60.6%
same,"viability, T/C","second compound 3.16 µM, first compound 1 µM",67.2%
same,"viability, T/C","second compound 3.16 µM, first compound 3.16 µM",62.8%
same,"viability, T/C","second compound 3.16 µM, first compound 10 µM",54.9%
same,"viability, T/C","second compound 10 µM, first compound 0.0316 µM",54.8%
same,"viability, T/C","second compound 10 µM, first compound 0.1 µM",48.4%
same,"viability, T/C","second compound 10 µM, first compound 0.316 µM",50.3%
same,"viability, T/C","second compound 10 µM, first compound 1 µM",51.8%
same,"viability, T/C","second compound 10 µM, first compound 3.16 µM",49.4%
same,"viability, T/C","second compound 10 µM, first compound 10 µM",48.2%
